In data set [1] the test system is HUVEC.
Experimental: (§1) The antiproliferative activity of bromelain, nattokinase and papain was assessed using a Lactate Dehydrogenase (LDH) Assay. Human Umbilical Vein Endothelial Cells (HUVEC) from semi-confluent cultures were harvested by treatment with trypsin, seeded at a density of 2500 cells/well into 96-well microplates, previously coated with human fibronectin. In oder to allow proper attachment, cells were incubated for 24 hours in Endothelial Basal medium 2MV (Cambrex Biochemicals) containing 10% Fetal Calf Serum, 60 μg/ml Endothelial cell Growth Supplement, hrEGF, hrFGF2, hrIGF, hrVEGF, Ascorbic Acid and Heparin. After attachment, cells were starved by incubation at 37° C./95% humidity in Medium 199+10% Fetal Calf Serum (FCS) without growth factors. After 24 hours, the supernatant was replaced by Medium 199 containing 10% FCS, VEGF and varying concentrations of the enzymes. After an incubation period of 48 hours, supernatant was harvested and an LDH assay was performed according to the instructions of the manufacturer (Promega, Germany): 50 μl aliquots from all wells were transferred to a fresh 96-well flat-bottom (enzymatic assay) plate. The Assay Buffer was added to the Substrate Mix and mixed gently. 50 μl of reconstituted Substrate Mix was added to each well. The plate was incubated for 30 minutes at room temperature. 50 μl of Stop Solution was added to each well. Within one hour, optical density was measured at 490 nm with a reference wavelength of 620 nm. Results are expressed as % untreated control.
(§2) To test a possible cytotoxic activity of rutosid an Lactate Dehydrogenase (LDH) Assay was used. Human Umbilical Vein Endothelial Cells (HUVEC) from semi-confluent cultures were harvested by treatment with trypsin, seeded at a density of 2500 cells/well into 96-well microplates, previously coated with human fibronectin. In oder to allow proper attachment, cells were incubated for 24 hours in Endothelial Basal medium 2MV (Cambrex Biochemicals) containing 10% Fetal Calf Serum, 60 μg/ml Endothelial cell Growth Supplement, hrEGF, hrFGF-2, hrIGF, hrVEGF, ascorbic acid and heparin. After attachment, cells were starved by incubation at 37° C./95% humidity in Medium 199+10% Fetal Calf Serum (FCS) without growth factors. After 24 hours, the supernatant was replaced by Medium 199 containing 10% FCS, VEGF and varying concentrations of the enzymes. After an incubation period of 48 hours, supernatant was harvested and an LDH assay was performed according to the instructions of the manufacturer (Promega, Germany): 50 μl aliquots from all wells where transferred to a fresh 96-well flat-bottom (enzymatic assay) plate. […] Within one hour, optical density was measured at 490 nm with a reference wavelength of 620 nm. Results are expressed as % untreated control.
The subject of data set [2] is HUVEC. Nature of the data set: MTT assay with treated HUVEC (antiproliferative activity). The class given is cell-based, Human. As to conditions: for inhibition of VEGF stimulated proliferation (MTT): VEGF stimulated HUVEC, FIG. 5; for inhibition of VEGF stimulated proliferation (MTT) / antiproliferative effect (MTT), in words / % growth (MTT): 48 hours; for antiproliferative effect (MTT), in words: concentration-response; for % growth (MTT): at concentrations as low as 25 μg/ml. The protocol: The antiproliferative activity of bromelain, nattokinase and papain and their mixtures was assessed using an 3-(4,5-dimethylthiazol-2-yl)-2,5-diphenyltetrazoliumbromide (MTT) assay. […] Cells were incubated further 48 hours at 37° C./95% humidity. The MTT Assay was carried out using an EZ4U MTT Kit (Biomedica, Austria; according to the instructions of the manufacturer). Optical density was measured at 450 nm with a reference wavelength of 620 nm. Results are expressed as % proliferation with 100% being the proliferation of the VEGF treated control.
To assess a possible antiproliferative activity of Rutosid an 3-(4,5-dimethylthiazol-2-yl)-2,5-diphenyltetrazoliumbromide (MTT) Assay was used. […] Cells were incubated further 48 hours at 37° C./95% humidity. The MTT-Assay was carried out using a EZ4U MTT Kit (Biomedica, Austria) according to the instructions of the manufacturer) Optical density was measured at 450 nm with a reference wavelength of 620 nm. Results are expressed as % proliferation with 100% being the proliferation of the VEGF treated control.

Data set [3] concerns HUVEC. The data set is described as follows: Tube formation assay on Matrigel (antiangiogenic activity). In kind it is cell-based, Human. As to conditions: for inhibition of VEGF induced tube formation: FIG. 3, FIG. 7 right; for inhibition of spontaneous tube formation: no VEGF, FIG. 7 left; for ability to inhibit or prevent angiogenesis: general statement on proteases of mammalian origin. The protocol:
Methods: Antiangiogenic activity was assessed using a tube formation assay. Growth factor reduced Matrigel (Becton Dickinson, Vienna) was thawed at a temperature of 4° C. 50 μl per well were pipetted into the wells of a 96 well microtiter plate. The plate was left at 4° C. for 24 hours. Prior to the experiment, the plate was incubated for 30-60 minutes at 37° C. to solidify the gel. HUVEC were harvested by treatment with trypsin and seeded into Matrigel coated 96 well microplates at a density of 20.000 cells per well in Endothelial Growth Medium 2(MV) (Lonza, Brussels) supplemented with ascorbic acid and hydrocortisone according to the instructions of the manufacturer as well as […] heparin and 1% Fetal Bovine Serum. Drugs and VEGF were added to the desired concentrations. After further 16 hrs to 18, wells were photographed. The total length of tubes was determined using the ImageJ Software, measured by the Neuron Length Determination Plugin.

For data set [4], the system named is HUVEC. Nature of the data set: LDH release into supernatant of treated HUVEC (toxicity test). The note with it: up to a level of including 25 μg/ml; 2 days of incubation. A general note: LDH leaks from cells whose membrane has failed.
Experimental: as §1, §2

This note sets out measurements from US9795656B2, “Treatment of ocular diseases” (MARLYN NUTRACEUTICALS INC, priority 2006, dated 2017).

Entries after “also recorded” stand apart in the source; their conditions may differ.

With `C[C@@H]1O[C@@H](OC[C@H]2O[C@@H](Oc3c(-c4ccc(O)c(O)c4)oc4cc(O)cc(O)c4c3=O)[C@H](O)[C@@H](O)[C@@H]2O)[C@H](O)[C@H](O)[C@H]1O` [Rutosid], the “toxicity in HUVEC (LDH), overall” value in data set [1] is “negligible”. In addition, the “inhibition of VEGF stimulated proliferation (MTT)” value in data set [2] is “No inhibition of proliferation”; in data set [2] (listed as rutosid) it was “does not inhibit”.
Consider ficin, for which, in data set [3], the “inhibition of VEGF induced tube formation” value is “significant decrease; also recorded: inhibited formation of tubes almost to the same extend as in untreated HUVEC” and the “inhibition of spontaneous tube formation” value is recorded as “inhibited formation of tubes”.
Turning to chymotrypsin [reference compound], in data set [3], the “inhibition of VEGF induced tube formation” value was “but not chymotrypsin or trypsin inhibited formation of tubes”, the “ability to inhibit or prevent angiogenesis” value is given as “not able to inhibit or prevent angiogenesis” and the “inhibition of spontaneous tube formation” value is on record as “but not chymotrypsin or trypsin inhibited formation of tubes”.
Take Nattokinase: in data set [4], the “toxic effects on HUVEC (LDH release)” value is “did not show toxic effects”. For the same molecule, in data set [3], the “inhibition of VEGF induced tube formation” value is on record as “significant decrease; also recorded: inhibited formation of tubes almost to the same extend as in untreated HUVEC” and the “inhibition of spontaneous tube formation” value is given as “inhibited formation of tubes”. Further, the “antiproliferative effect (MTT), in words” value in data set [2] is “clear antiproliferative effect”.
In the case of Bromelain, the “toxic effects on HUVEC (LDH release)” value in data set [4] was “did not show toxic effects”. Further, in data set [3], the “inhibition of VEGF induced tube formation” value is listed as “inhibited formation of tubes almost to the same extend as in untreated HUVEC” and the “inhibition of spontaneous tube formation” value is reported as “inhibited formation of tubes”. Also, the “inhibition of VEGF induced tube formation” value in data set [3] (listed as bromelain) is on record as “significant decrease”. The “% growth (MTT)” value in data set [2] (100% = VEGF treated control) worked out at 75%. The “antiproliferative effect (MTT), in words” value in data set [2] is on record as “clear antiproliferative effect”.
As to trypsin [reference compound], in data set [3], the “inhibition of VEGF induced tube formation” value is reported as “but not chymotrypsin or trypsin inhibited formation of tubes”, the “ability to inhibit or prevent angiogenesis” value is reported as “not able to inhibit or prevent angiogenesis” and the “inhibition of spontaneous tube formation” value is “but not chymotrypsin or trypsin inhibited formation of tubes”.
Consider serrapeptase, for which, in data set [3], the “inhibition of VEGF induced tube formation” value is “significant decrease; also recorded: inhibited formation of tubes almost to the same extend as in untreated HUVEC” and the “inhibition of spontaneous tube formation” value is listed as “inhibited formation of tubes”.

B1: Papain (protein, UniProt P00784 134-345, looked up)
Papain: IPEYVDWRQKGAVTPVKNQGSCGSCWAFSAVVTIEGIIKIRTGNLNEYSEQELLDCDRRSYGCNGGYPWSALQLVAQYGIHYRNTYPYEGVQRYCRSREKGPYAAKTDGVRQVQPYNEGALLYSIANQPVSVVLEAAGKDFQLYRGGIFVGPCGNKVDHAVAAVGYGPNYILIKNSWGTGWGENGYIRIKRGTGNSYGVCGLYTSSFYPVKN
Regarding B1, in data set [4], the “toxic effects on HUVEC (LDH release)” value is listed as “did not show toxic effects”. Also, in data set [3], the “inhibition of VEGF induced tube formation” value is “significant decrease; also recorded: inhibited formation of tubes almost to the same extend as in untreated HUVEC” and the “inhibition of spontaneous tube formation” value is reported as “inhibited formation of tubes”. Moreover, the “% tube formation” value in data set [3] (in presence of VEGF, 100% = samples treated with VEGF only) came out at 60.14%. The “% growth (MTT)” value in data set [2] (100% = VEGF treated control) turned out to be 75%. In addition, the “% Proliferation” value in data set [2] (combinations of bromelain, nattokinase and papain in presence of VEGF, 100% = VEGF treated control) came out at 75.45%. Moreover, the “antiproliferative effect (MTT), in words” value in data set [2] is reported as “clear antiproliferative effect”.
